Data from ChEMBL document CHEMBL1177749, “Tetracyclic chromane derivatives from Rhododendron anthopogonoides” (J Nat Prod, 2010).

What follows are compounds tested on Mast cell (assay: Inhibition of compound 48/80-induced histamine release in Wister rat Peritoneal mast cells).
Type: functional, cell-based

Point of comparison: Cc1cc2c(c(O)c1C(=O)O)[C@H]1[C@@H]3[C@@](C)(CCC[C@]3(C)O2)[C@H]1C(=O)CC(C)C [ANTHOPOGOCHROMANE], IC50 114 µM. Against it:
- COc1ccc2c(c1)c(CC(=O)O)c(C)n2C(=O)c1ccc(Cl)cc1 [INDOMETHACIN] — 2.2-fold higher, 250 µM
- C/C(=C\CC[C@@]1(C)C=Cc2c(cc(C)c(C(=O)O)c2O)O1)CC(=O)CC(C)C [ANTHOPOGOCHROMENE A] — 1.8-fold lower, 63 µM
